Measurements taken from ChEMBL document CHEMBL1158307, “Hippospongins AF: New Furanoterpenes from a Southern Australian Marine Sponge Hippospongia sp” (J Nat Prod, 1996).
Activity calls are given as the source filed them. The rule behind the calls is not given here.

Test system: Staphylococcus aureus
Assay: Antibacterial activity against Staphylococcus aureus at 200 ug/disk by standard agar plate assay
Assay type: functional, organism-based

In the case of CC(CCCc1coc(CC(C)C(=O)O)c1)Cc1cc(CCCc2ccoc2)co1 (stereo unspecified), the Activity is reported as “Active”.
